Data on three compounds can be found in patent EP0430991B1, “REAGENT FOR USE IN LD-1 ASSAY” (BOEHRINGER MANNHEIM CORPORATION, priority 1988, dated 1990).

Structures can show the parent of a compound that is named as a salt. Where two headings read alike, the source gives them in different places.

Test [1] addresses lactate dehydrogenase isoenzyme LD-1, H(4) (Homo sapiens, UniProt P07195). Description: biochemical. The note with it: for LD-1 ISOENZYME REAGENT (Recovery): Lithium L-Lactate 90 mM, pH 9.6; for activity at 240000 µM: R1: guanadine thiocyanate 240 mM, Lithium L-Lactate 90mM, Tris 112.6 mM, pH 9.5, 37 degrees C. As to the method: (§1) A. Materials: • 1. Reagent I. contains Lithium L-Lactate (90mM), guanadine thiocyanate (240 mM), Tris buffer (112.6 mM) at pH 9.5. • 2. Reagent II. contains Na(2)SO(4) (40 mM) and NAD (53.76 mM). Reaction mixture is a combination of 2.0 ml of R-1, 0.5 ml of R-2 which has a final reaction pH of 8.9 • 3. LD isoenzymes. Pure LD-1, LD-2, LD-3 and LD-5 individual isoenzymes were obtained from Aalto of Escondido, CA. Patient serum samples were obtained from a local hospital. B. Procedures Using Automated Analyzer Tests were performed on a Boehringer Mannheim/Hitachi 705 analyzer. The analyzer was given the following parameters: Assay Code: Rate - 20-26 (equivalent to 84.62 seconds to 198.70 seconds) Sample Volume: 12 µl R1 Volume: 400 µl R2 Volume: 100 µl Wavelength 1: 376 nm Wavelength 2: 340 nm Temperature: 37 degrees C. Factor: -10470 C. Manual Procedure Instrument: Spectrophotometer Temperature: 37 degrees C. Wavelength: 340 nm 1. Zero spectrophotometer with distilled or deionized water (DI HOH) 2. Pipette the following reagents in a cuvette:
(§2) 3. Mix and equilibrate sample to 37 degrees C. 4. Pipette and add 0.5 ml of R2 into sample test tube. Mix and measure optical density change at 340 nm for about 6 minutes. Calculate A/min. from 2 to 4 minutes. This is A/min for the sample. 5. Repeat steps 2 to 4 for the blank using 0.060 ml DI HOH as sample. This is A/min. for the blank. 6. Calculate for U/L (U/L = units of LDH activity per liter) U/L = (A/min Sample - A/min blank) x 1000 x 2.56 6.22 x light path x 0.06 [formula] D. Protocol for the Electrophoretic Analysis • 1. About 630 to 1,000 µl of individual LD-1, LD-2, LD-3, LD-4, LD-5 and abnormal patient serum samples were used in the electrophoretic analysis. • 2. 12 µl sample was added to […] R1 and incubated for 4 minutes at 37 degrees C to inhibit LD-2 to LD-5 to achieve an inhibited sample. • 3. Another 12 µl sample was added to 400 ul of Tris buffer (112.6 mM, pH at 8.9-9.0) and incubated for 4 minutes at 37 degrees C to achieve a control sample. • 4. Both the inhibited and control samples were applied to the Beckman Paragon Gel and the electrophoresis was run according to the Beckman procedure specified for the gel using a Beckman Paragon Electrophoresis instrument from Beckman Instrument. E. Method for Comparison Sixty-eight patient samples with LD-1 activity from 30 to 800 U/L were tested to compare the selectivity of R1 with the immunochemical separation method Roche's Isomune LD-1 reagent was employed for the immunochemical separation. F. Experimental Results 1. LD isoenzymes were tested using the Automated Analyzer procedure described above. […] LD-1 isoenzyme was tested at several concentrations. […]
(§3) A. Materials • 1. Reagent I: contains Lithium L-Lactate (90 mM), guanidine HCl (240 mM), sodium thiocyanate (240 mM) Tris buffer (119 mM) and Na(2)Co(3) (12.5 mM) at pH 9.6. • 2. Reagent II: contains Na(2)SO(4) (40 mM) and NAD (53.76 mM). Reaction mixture is a combination of 2.0 ml of R-1, 0.5 ml of R-2 which has final reaction pH at 8.9. • 3. LD isoenzymes: Same as described in Example 1. B. Procedures using Automated Analyzer Same as described in Example 1. C. Manual Procedure Same as described in Example 1. […]
(§4) A. Materials • 1. Reagent I: contains Lithium L-Lactate (90 mM), guanidine-HCL Na(2)Co(3) (12.5mM), Tris buffer (119 mM) at pH 9.6. • 2. Reagent II: contains Na(2)SO(4) (40 mM) and NAD (53.76 Mm). Reaction mixture is a combination of 2.0 ml of R-1, 0.5 ml of R-2 which has final reaction reaction pH at 8.9. • 3. LD isoenzymes: pure LD-1, LD-2, LD-3 and LD-5 individual isoenzymes are obtained from Aalto, Escondido, CA. Patient serum samples are obtained from a local hospital. B. Procedures using Automated Analyzer Same as described in Example 1. C. Manual Procedure Same as described in Example 1. […] Table
(§5) A. Materials • 1. Reagent I: contains Lithium L-Lactate (90 mM), NaSCN (240 mM) Na(2)Co(3) (12.5 mM), Tris buffer (119 mM) at pH 9.6. • 2.

Test [2] concerns the target T1, lactate dehydrogenase isoenzyme LD-2, H(3)M (Homo sapiens, UniProt P00338+P07195).
T1 construct: purchased Aalto, Escondido, CA
Description: LD isoenzyme inactivation, automated analyzer rate assay (lactate/NAD, 340 nm). Type of test: biochemical. The note with it: for LD-1 ISOENZYME REAGENT (Recovery): Lithium L-Lactate 90 mM, pH 9.6. How it is done: as §1, §2, §3, §4, §5

Test [3] deals with T2, lactate dehydrogenase isoenzyme LD-3, H(2)M(2) (Homo sapiens, UniProt P00338+P07195).
T2 construct: purchased Aalto, Escondido, CA
The description is as above. Type of test: biochemical. The following applies: Lithium L-Lactate 90 mM, pH 9.6. How it is done: as §1, §2, §3, §4, §5

The target in test [4] is lactate dehydrogenase isoenzyme LD-5, M(4) (Homo sapiens, UniProt P00338). Described as above. The test is classed as biochemical. The following applies: for LD-1 ISOENZYME REAGENT (Recovery): Lithium L-Lactate 90 mM, pH 9.6. How it is done: as §1, §2, §3, §4, §5
The test system of test [5] is LD-2,3,4,5 (sample contains LD(2), LD(3), LD(4), and LD(5) isoenzymes with 43% of LD(4)). The test is described as above. Type of test: biochemical, human. The note with it: Lithium L-Lactate 90 mM, pH 9.6. As to the method:
A. Materials: • 1. […] LD isoenzymes. […] Patient serum samples were obtained from a local hospital. […] Factor: -10470 C. Manual Procedure Instrument: Spectrophotometer Temperature: 37 degrees C. Wavelength: 340 nm 1. […] Pipette the following reagents in a cuvette:
3. Mix and equilibrate sample to 37 degrees C. 4. […] Calculate A/min. from 2 to 4 minutes. This is A/min for the sample. 5. […] This is A/min. for the blank. 6. […] F. Experimental Results 1. […] LD-1 isoenzyme was tested at several concentrations. […]
A. Materials • 1. […] LD isoenzymes: Same as described in Example 1. […] C. Manual Procedure Same as described in Example 1. […]
A. Materials • 1. […] Patient serum samples are obtained from a local hospital. […] C. Manual Procedure Same as described in Example 1. […] Table

Test [6] deals with lactate dehydrogenase isoenzyme LD-4, HM(3) (Homo sapiens, UniProt P00338+P07195). Described as above. Type of test: biochemical. The following applies: R1: guanadine thiocyanate 240 mM, Lithium L-Lactate 90mM, Tris 112.6 mM, pH 9.5; 37 degrees C; read-out: Activity After R1 Treatment (% of Total LDH Reagent). As to the method:
as §1
3. Mix and equilibrate sample to 37 degrees C. 4. Pipette and add 0.5 ml of R2 into sample test tube. Mix and measure optical density change at 340 nm for about 6 minutes. Calculate A/min. from 2 to 4 minutes. This is A/min for the sample. 5. Repeat steps 2 to 4 for the blank using 0.060 ml DI HOH as sample. This is A/min. for the blank. 6. […]

The mark [7] stands for this setting: Reagent I: guanidine-HCL (concentration not given), no thiocyanate.
[8] abbreviates: R1: guanadine thiocyanate 240 mM, Lithium L-Lactate 90mM, Tris 112.6 mM, pH 9.5, 37 degrees C, read-out: Activity After R1 Treatment (% of Total LDH Reagent).
Where [9] appears, read: Reagent I: NaSCN 240 mM, no guanidine.

`N=C(N)N` [GUANIDINE HCL, guanidine HCl]: the “LD-1 ISOENZYME REAGENT (Recovery)” value is on record as 202 (110 %) in test [1] (LD-1 sample 1X, Reagent I: guanidine-HCL (concentration not given), no thiocyanate); 394 (107 %) in test [1] (LD-1 sample 2X, Reagent I: guanidine-HCL (concentration not given), no thiocyanate); 759 (107 %) in test [1] (LD-1 sample 4X, Reagent I: guanidine-HCL (concentration not given), no thiocyanate); 1123 (106 %) in test [1] (LD-1 sample 6X, Reagent I: guanidine-HCL (concentration not given), no thiocyanate); 826 (106 %) in test [2] (setting [7]); 1323 (102 %) in test [3] (setting [7]). In addition, the “LD-1 ISOENZYME REAGENT (Recovery)” value in test [4] (setting [7]) is 159 ( 9.50%); in test [5] (setting [7]) it was 1102 ( 81.2 %).
For the compound `N=C(N)N` [guanadine thiocyanate], the activity at 240000 µM in test [1] (pH 9.5, read-out: Activity After R1 Treatment (% of Total LDH Reagent), LD-1 sample 1x) is 98%; in test [1] (pH 9.5, read-out: Activity After R1 Treatment (% of Total LDH Reagent), LD-1 sample 2x), 100%; in test [1] (pH 9.5, read-out: Activity After R1 Treatment (% of Total LDH Reagent), LD-1 sample 4x), 100%; in test [1] (pH 9.5, read-out: Activity After R1 Treatment (% of Total LDH Reagent), LD-1 sample 6x), 102%; in test [2] (setting [8]), 1.1%; in test [4] (setting [8]), 0%. The activity at 240000 µM in test [6] came to 0%.
Take sodium thiocyanate [NaSCN]: the “LD-1 ISOENZYME REAGENT (Recovery)” value in test [1] (LD-1 sample 1X, Reagent I: NaSCN 240 mM, no guanidine) is listed as 252 (138 %); in test [1] (LD-1 sample 2X, Reagent I: NaSCN 240 mM, no guanidine), 499 (136 %); in test [1] (LD-1 sample 4X, Reagent I: NaSCN 240 mM, no guanidine), 964 (134 %); in test [1] (LD-1 sample 6X, Reagent I: NaSCN 240 mM, no guanidine), 1421 (134 %); in test [2] (setting [9]), 905 (116 %); in test [3] (setting [9]), 1093 ( 85 %). The entries for the “LD-1 ISOENZYME REAGENT (Recovery)” value in test [4] (setting [9]) and in test [5] (setting [9]) were 44 ( 2.6%) and 725 ( 53 %), respectively.
